According to patent publication US11691962B2 (eXIthera Pharmaceuticals, Inc., priority 2018, dated 2023):
Converted amounts (≈) assume the structure as drawn.

Legend:
[1] = Aqueous solubility in PBS by HPLC-UV/VIS; assay type: physicochemical; conditions: PBS pH 7.4, 2% DMSO, 24 h at room temperature; for solubility at 24 h: phosphate buffered saline, aqueous buffer, kinetic from dmso stock
Procedure: The following procedure was used to determine the aqueous solubility of a test compound in phosphate buffered saline (PBS-NaCl 137 mM, KCl 2.7 mM, Na2HPO4 8.1 mM, KH2PO4 1.5 mM, pH 7.4) in 96-well plate format by HPLC-UV/VIS analysis. The test compound was prepared at 200 μM in PBS from a 10 mM DMSO stock solution. The final DMSO concentration was 2%. The PBS buffer samples were mixed thoroughly followed by incubation at room temperature for 24 h. At the end of the incubation, the PBS buffer samples were centrifuged and supernatants analyzed by HPLC. The aqueous solubility (μM) of the test compound in PBS was determined by comparing the peak area of the principal peak in the calibration standard (200 μM) with the peak area of the corresponding peak in each of the PBS samples. The range of the assay was approximately 0.5 μM to 200 μM. The reference compounds used in each assay were metoprolol, rifampicin, ketoconazole, phenytoin, haloperidol, simvastatin, diethylstilbestrol, and tamoxifen ranking from fully soluble (200 μM) to poorly soluble (<1 μM).

[2] = Plasma protein binding by equilibrium dialysis; assay type: in vitro ADME; conditions: both sexes, pH 7.4, pooled human plasma, 4 hours at 37° C., read-out: PPB (%)
Procedure: The following procedure was used to determine the plasma protein binding of a test compound in pooled plasma from human (mixed gender) via equilibrium dialysis in a 96-well plate format. The dialysate compartment was loaded with phosphate-buffered saline (pH 7.4) and the sample side was loaded with plasma spiked with the test compound at a concentration of 10 μM. After loading, samples were covered and incubated for 4 hours at 37° C. After incubation, each compartment was sampled, diluted with acetonitrile/buffer and centrifuged. The supernatants were analyzed by HPLC-MS/MS. The analyte peak areas obtained from HPLC-MS/MS analysis of each sample were used to calculate protein binding according to the following equation (Equation 4):
[formula] where: AREAp=Peak area of analyte in protein matrix; AREAb=Peak area of analyte in buffer.
The amount measured in the plasma compartment included both free and bound drug, while that on the buffer side represented free drug only; the differences were used to calculate the percentage plasma protein bound. Three reference compounds were tested in each assay: acebutolol, quinidine and warfarin.

[3] = Metabolic stability in dog hepatocytes; assay type: in vitro ADME; conditions: pooled cryopreserved hepatocytes; beagle dog hepatocytes, 2 μM compound; read-out: Dog Hepatocyte Stability (t1/2)
Procedure: The following procedure was used to determine the stability of test compounds in beagle dog hepatocytes in a 96-well plate format. The test compounds, including the controls, imipramine and 7-ethoxycoumarin, were dissolved at 10 mM in DMSO, followed by further 5-fold dilution with DMSO to 2 mM. Pooled cryopreserved beagle dog hepatocytes were thawed and transferred into complete medium. Cells were gently centrifuged (700 rpm for 5 min) and the pellet rinsed with KHB (Krebs Henseleit buffer). Cells were resuspended, counted using Trypan blue, and adjusted to 1 million cells/mL in KHB buffer. The 2 mM compound stock solutions were diluted 10-fold with acetonitrile, followed by a further 50-fold dilution with KHB buffer. 200 μL of these compound solutions were transferred to 96-well polypropylene assay plates and an equal volume of the hepatocyte solution was added and mixed to initiate the reaction (final assay concentrations were 2 μM compound and 500,000 cells/mL). Assay plates were incubated at 37° C. in 5% CO2 with gentle agitation. 50 μL aliquots were removed at multiple time points out to 180 minutes and quenched with 6 volumes of cold acetonitrile (containing 250 ng/mL of carbutamide and chrysin as internal standards) to terminate the reaction and precipitate protein. Quenched samples were maintained on ice. The quenched samples were centrifuged at 2000×g (3100 rpm) for 10 minutes at 4° C. 50 μL aliquots of the supernatants were removed and diluted with 100 μL Milli-Q water to reduce the % organic content prior to bioanalysis by LC-MS/MS. Peak areas corresponding to the test compound were recorded. The compound remaining was calculated by comparing the peak area at each time point to time zero. Data were analyzed and results were calculated using Microsoft Excel 2010.

Trypsin = assay: Dose response assay for protease inhibitors: trypsin; assay type: biochemical; conditions: selectivity, trypsin over Factor XIa
In short: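 Fluorogenic AMC-peptide cleavage in 20 mM Hepes pH 7.4, 150 mM NaCl, 0.02% Tween 20; 100 μM stock substrate dilution (Glp-Pro-Arg-AMC for thrombin/trypsin; Pro-Phe-Arg-AMC or Boc-Leu-Gly-Arg-AMC for Factor Xa). Enzyme diluted to 0.5 nM, added last to two-fold compound series; kinetic read at 30° C, 30 min (Factor Xa 60 min); IC50 fitted.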

Compound | solubility at 24 h [1] [µM] | fraction unbound at 4 h, 10 μM [2] | half-life at 2 μM [3] [h] | Ratio: Trypsin/FXIa (Trypsin) | Aqueous Solubility (uM, in PBS) [1]
CC[C@@H](NC(=O)N1C(=O)[C@H](Cc2ccnc(N)c2)[C@H]1C(=O)N(C)c1ccn(C)n1)C1CCCCC1 [Compound 1-47, (2S,3R)-3-((2-aminopyridin-4-yl)methyl)-N2-(1-methyl-1H-pyrazol-3-yl)-N1-((R)-1-cyclohexylpropyl)-N2-methyl-4-oxoazetidine-1,2-dicarboxamide] | > 100 | 0.05 to 0.09 | 1.02 to 2 | G (“G” indicates 1-100) | –
CC[C@@H](NC(=O)N1C(=O)[C@H](Cc2cc(C)nc(N)c2)[C@H]1C(=O)N(C)c1nccn1C)c1ccccc1 [Compound 1-51, (2S,3R)-3-((2-amino-6-methylpyridin-4-yl)methyl)-N2-(1-methyl-1H-imidazol-2-yl)-N1-((R)-1-phenylpropyl)-N2-methyl-4-oxoazetidine-1,2-dicarboxamide] | > 100 | 0.1 to 0.5 | > 4 | G (“G” indicates 1-100) | –
C[C@@H](NC(=O)N1C(=O)[C@H](Cc2ccnc(N)c2)[C@H]1C(=O)N(C)c1ccn(C)n1)C1CCCCC1 [Compound 1-50, (2S,3R)-3-((2-aminopyridin-4-yl)methyl)-N2-(1-methyl-1H-pyrazol-3-yl)-N1-((R)-1-cyclohexylethyl)-N2-methyl-4-oxoazetidine-1,2-dicarboxamide] | > 100 | 0.1 to 0.5 | 1.02 to 2 | G (“G” indicates 1-100) | –
CC[C@@H](NC(=O)N1C(=O)[C@H](Cc2ccnc(N)c2)[C@H]1C(=O)N(C)c1nccn1C)c1cccc(Cl)c1 [Compound 1-35, (2S,3R)-3-((2-aminopyridin-4-yl)methyl)-N2-(1-methyl-1H-imidazol-2-yl)-N1-((R)-1-(3-chlorophenyl)propyl)-N2-methyl-4-oxoazetidine-1,2-dicarboxamide] | > 100 | 0.1 to 0.5 | 1.02 to 2 | G (“G” indicates 1-100) | –
CC(C)[C@@H](NC(=O)N1C(=O)[C@H](Cc2ccnc(N)c2)[C@H]1C(=O)N(C)c1ccn(C)n1)C1CCCCC1 [Compound 1-57, (2S,3R)-3-((2-aminopyridin-4-yl)methyl)-N2-(1-methyl-1H-pyrazol-3-yl)-N1-((R)-1-cyclohexyl-2-methylpropyl)-N2-methyl-4-oxoazetidine-1,2-dicarboxamide] | 10 to 100 (≈ 4.96 to 49.6 µg/mL) | < 0.05 | < 1 | G (“G” indicates 1-100) | –
CC[C@@H](NC(=O)N1C(=O)[C@H](Cc2ccnc(N)c2)[C@H]1C(=O)N(C)c1ccnn1C)c1ccccc1 [Compound 1-92, (2S,3R)-3-((2-aminopyridin-4-yl)methyl)-N2-(1-methyl 1H-pyrazol-5-yl)-N1-((R)-1-phenylpropyl)-N2-methyl-4-oxoazetidine-1,2-dicarboxamide] | > 100 | 0.1 to 0.5 | 2.02 to 4 | G (“G” indicates 1-100) | –
CC[C@@H](NC(=O)N1C(=O)[C@H](Cc2ccnc(N)c2)[C@H]1C(=O)N(C)c1ccnn1C)C1CCCCC1 [Compound 1-63, (2S,3R)-3-((2-aminopyridin-4-yl)methyl)-N2-(1-methyl-1H-pyrazol-5-yl)-N1-((R)-1-cyclohexylpropyl)-N2-methyl-4-oxoazetidine-1,2-dicarboxamide] | > 100 | 0.1 to 0.5 | < 1 | G (“G” indicates 1-100) | –
(2S,3R)-3-((2-amino-6-methylpyridin-4-yl)methyl)-N2-(1-methyl-1H-imidazol-2-yl)-N1-((R)-1-(3-fluorophenyl)propyl)-N2-methyl-4-oxoazetidine-1,2-dicarboxamide [Compound 1-120] | – | – | – | G (“G” indicates 1-100) | W (“W” indicates > 100 μM)
CN(C(=O)[C@@H]1[C@@H](Cc2ccnc(N)c2)C(=O)N1C(=O)N[C@@H](C1CCCCC1)C(F)(F)F)c1ccn(C)n1 [Compound 1-32, (2S,3R)-3-((2-aminopyridin-4-yl)methyl)-N2-(1-methyl-1H-pyrazol-3-yl)-N1-((S)-1-cyclohexyl-2,2,2-trifluoroethyl)-N2-methyl-4-oxoazetidine-1,2-dicarboxamide] | > 100 | 0.05 to 0.09 | < 1 | G (“G” indicates 1-100) | –
CC[C@@H](NC(=O)N1C(=O)[C@H](Cc2cc(C)nc(NC)c2)[C@H]1C(=O)N(C)c1nccn1C)c1cccc(Cl)c1 [Compound 1-46, (2S,3R)-3-((2-methylamino-6-methylpyridin-4-yl)methyl)-N2-(1-methyl-1H-imidazol-2-yl)-N1-((R)-1-(3-chlorophenyl)propyl)-N2-methyl-4-oxoazetidine-1,2-dicarboxamide] | > 100 | 0.05 to 0.09 | 1.02 to 2 | G (“G” indicates 1-100) | –
CC[C@@H](NC(=O)N1C(=O)[C@H](Cc2cc(C)nc(N)c2)[C@H]1C(=O)N(C)c1cnn(C)c1)c1cccc(Cl)c1 [Compound 1-15, (2S,3R)-3-((2-amino-6-methylpyridin-4-yl)methyl)-N2-(1-methyl-1H-pyrazol-4-yl)-N1-((R)-1-(3-chlorophenyl)propyl)-N2-methyl-4-oxoazetidine-1,2-dicarboxamide] | > 100 | 0.1 to 0.5 | > 4 | G (“G” indicates 1-100) | –
CC[C@@H](NC(=O)N1C(=O)[C@H](Cc2cc(C)nc(N)c2)[C@H]1C(=O)N(C)c1ccnn1C)c1ccc(C)c(F)c1 [Compound 1-155, (2S,3R)-3-((2-amino-6-methylpyridin-4-yl)methyl)-N2-(1-methyl-1H-pyrazol-5-yl)-N1-((R)-1-(3-fluoro-4-methylphenyl)propyl)-N2-methyl-4-oxoazetidine-1,2-dicarboxamide] | > 100 | 0.1 to 0.5 | 2.02 to 4 | G (“G” indicates 1-100) | –
CC[C@@H](NC(=O)N1C(=O)[C@H](Cc2cc(C)nc(N)c2)[C@H]1C(=O)N(C)c1ccnn1C)c1ccc(F)c(F)c1 [Compound 1-158, (2S,3R)-3-((2-amino-6-methylpyridin-4-yl)methyl)-N2-(1-methyl-1H-pyrazol-5-yl)-N1-((R)-1-(3,4-difluorophenyl)propyl)-N2-methyl-4-oxoazetidine-1,2-dicarboxamide] | > 100 | 0.05 to 0.09 | 2.02 to 4 | G (“G” indicates 1-100) | –
CC[C@@H](NC(=O)N1C(=O)[C@H](Cc2ccnc(N)c2)[C@H]1C(=O)N(C)c1cccs1)c1ccccc1 [Compound 1-10, (2S,3R)-3-((2-aminopyridin-4-yl)methyl)-N2-(thiophen-2-yl)-N1-((R)-1-phenylpropyl)-N2-methyl-4-oxoazetidine-1,2-dicarboxamide] | > 100 | 0.05 to 0.09 | < 1 | G (“G” indicates 1-100) | –
